Assay results taken from patent publication US8389030B2, “Nematicides from Juglandaceae and methods of use thereof” (Redox Chemicals, Inc., priority 2004, dated 2013).

Legend:
nematodes in roots = test: Orange grove field trial: reduction of nematodes in plant roots vs plants in untreated soil; assay type: in vivo; settings: clay loam soil, compared to roots of plants in untreated soil, NatureCur applied 3 times 30 days apart at 5000 ppm, the other agents applied once in mid-May
Protocol: (§1) A field trial was conducted on an orange grove, comparing the effect of the composition described in Example 1 (under its trade name, NatureCur™) against two widely used, commercially available nematicides, an emusifiable concentrate of 1,3 dichloropropene which can be applied to the soil after plants are planted (called a “post-plant” application) (Dow AgroSciences LLC, Indianapolis, Ind.), shown on the accompanying charts as “Cordon,” and imidacloprid, an insecticide marketed under the name Admire® (Bayer CropScience LP, Research Triangle Park, N.C.). For the soil treated with Cordon and the soil treated with Admire®, single applications of the agents were made in mid-May. The product NatureCur™ was applied in once in mid-May, once 30 days later in mid-June, and once again 30 days later in mid July, each time at a concentration of 5000 ppm. The soil in the grove was a clay loam, a very dense, heavy soil in which it is difficult to get agents to travel. Thus, the soil in this grove provided a particularly difficult test condition for NatureCur™, which has to infiltrate through the soil in water.
The percentage of reduction in number of nematodes in roots of plants whose soil was treated with the three agents compared to roots of plants in untreated soil is shown in Table 2 and FIG. 2.

nematodes in soil = test: Orange grove field trial: reduction of nematodes in soil vs untreated soil; assay type: in vivo; settings: clay loam soil, compared to untreated soil, NatureCur applied 3 times 30 days apart at 5000 ppm, the other agents applied once in mid-May
Protocol: as §1
Samples were taken of the soil around the plants and of the roots. The percentage of reduction in number of nematodes in soil treated with the three agents compared to untreated soil is shown in Table 1 and FIG. 1.

Row | SMILES | Percent reduction in nematodes in roots (nematodes in roots) | Percent reduction in nematodes in soil (nematodes in soil)
1 | ClC=CCCl [1,3 dichloropropene] | 61% | 58%
2 | O=[N+]([O-])NC1=NCCN1Cc1ccc(Cl)nc1 [Imidacloprid, imidacloprid] | 46% | 32%
